Results published in patent US20230035479A1, “METHODS AND COMPOSITIONS FOR REDUCING HAIR GREYING” (President and Fellows of Harvard College, priority 2019, published 2023).

Key:
[1] = system: melanocyte stem cells (MeSCs); assay: Apoptosis (active caspase-3, TUNEL) and DNA damage (gamma-H2AX) in MeSCs; format: in vivo, mouse
Protocol: Radiation causes DNA damage in MeSCs, leading to their differentiation within the niche.
Mouse skin samples were fixed using 4% paraformaldehyde (PFA) for 15 minutes at room temperature, washed 6 times with PBS, and immersed in 30% sucrose overnight at 4° C. Samples were then embedded in OCT (Sakura Finetek). 35˜50 μm sections were fixed in 4% paraformaldehyde (PFA) for 2 minutes and washed with PBS and PBST. Slides were then blocked using blocking buffer (5% donkey serum; 1% BSA, 2% cold water fish gelatin in 0.3% Triton in PBS) for 1 hour at room temperature, followed by staining with primary antibodies overnight at 4° C. and secondary antibody for 4 hours at room temperature. For sympathetic nerve density quantification, 90 μm sections were used. EdU was developed for 1 hour using the Click-It reaction according to manufacturer instructions (Thermo Fisher Scientific). TUNEL assay was performed according to manufacturer instructions (Roche). Fontana—Masson staining was performed according to manufacturer instructions (Market Lab ML7255). Antibodies used: TRP2 (Santa Cruz 10451, 1:800), tyrosine hydroxylase (rabbit, Millipore AB152, 1:1000 or sheep, Millipore AB1542, 1:150-1:300), c-Fos (Abcam, 190289, 1:1000), γ-H2AX (Cell Signaling, 9718, 1:400), phospho-histone H3 (rabbit, Cell Signaling Technology 3377S, 1:500), cleaved caspase 3 (rabbit, Cell Signaling Technology 9664S, 1:400), GFP (rabbit, Abcam ab290, 1:1000 or chicken, Ayes labs GFP-1010, 1:200), CD3 (eBioscience 14-0032-81, 1:800), CD11b (eBioscience 14-0112-81, 1:800), Phospho-CREB (Cell Signaling 9198, 1:800), MITF (Abcam ab12039, 1:400).

[2] = system: Phospho-CREB (a downstream effector of ADRB2); assay: Phospho-CREB immunofluorescence in hair follicles; format: in vivo, mouse; conditions: 12 hours after RTX injection; not in mature melanocytes
Protocol: It was then considered whether ADRB2 might mediate the impact of stress on MeSCs.
(§1) Mouse skin samples were fixed using 4% paraformaldehyde (PFA) for 15 minutes at room temperature, washed 6 times with PBS, and immersed in 30% sucrose overnight at 4° C. Samples were then embedded in OCT (Sakura Finetek). 35˜50 μm sections were fixed in 4% paraformaldehyde (PFA) for 2 minutes and washed with PBS and PBST. Slides were then blocked using blocking buffer (5% donkey serum; 1% BSA, 2% cold water fish gelatin in 0.3% Triton in PBS) for 1 hour at room temperature, followed by staining with primary antibodies overnight at 4° C. and secondary antibody for 4 hours at room temperature. For sympathetic nerve density quantification, 90 μm sections were used. EdU was developed for 1 hour using the Click-It reaction according to manufacturer instructions (Thermo Fisher Scientific). TUNEL assay was performed according to manufacturer instructions (Roche). Fontana—Masson staining was performed according to manufacturer instructions (Market Lab ML7255). […]

[3] = Fontana-Masson melanin staining; format: in vivo, mouse; conditions: 5 days after RTX injection
Protocol: They also began to depart from the bulge—some migrated downwards along the hair follicle, and some migrated out into dermis or epidermis (FIG. 4C, D2 and D3). By Day 3, many GFP positive cells had migrated out of the bulge, and by Day 4, many hair follicles had lost all GFP positive cells in the bulge.
as §1

[4] = system: melanocyte stem cells (MeSCs); assay: RNA-seq of FACS-purified MeSCs; format: in vivo, mouse; conditions: 12 hours after RTX injection
Protocol: Examination of marker gene expression for diverse skin cell types confirmed successful enrichment for MeSCs (FIG. 12D). To uncover major molecular changes, Gene Ontology (GO) enrichment analysis was conducted (FIG. 5B). A list of known genes associated with MeSC proliferation and differentiation was curated (FIG. 5C, FIG. 12E). Moreover, a list of genes previously denoted for cell cycle entry was utilized to assess if cell cycle regulators are altered at the transcriptional level (FIG. 12F). Some of these key changes were also verified by quantitative RT-PCR (qRT-PCR) (FIG. 12G). […]
MeSCs were purified using FACS from control and stressed mice skin samples at telogen based on their expression of CD117 [7], starting from a population that is negative for CD140a, CD45, Sca1, and CD34 [57]. […] Single-end sequencing reads were obtained using Illumina NextSeq 500 platform. Sequencing reads from RNA-seq libraries were trimmed using Trim Galore! […] Reads with alignment quality <Q30 were discarded. Gene expression levels were normalized and differential genes were calculated using DEseq2 package in R [60]. […] Transcripts Per Kilobase Million (TPM) calculated from count tables of Control MeSC samples were used to determine the expression levels of adrenergic receptors and glucocorticoid receptor shown in FIG. 2C.

[5] = system: melanocyte stem cells (MeSCs); assay: MeSC proliferation, Phospho-Histone H3 immunofluorescence; conditions: within 24 hours after injection, full anagen
Protocol: To examine if stress alters MeSCs quiescence, RTX or norepinephrine was injected into mice that had entered full anagen, when MeSCs are normally quiescent.
For RTX injection, mice received injections of RTX (30-100 μg/kg) in the flank for 1-3 days as described previously [15, 16, 51-56]. […] Control mice were treated with the vehicle only. RTX injection was done either in full anagen (P31-P36) or in 1st telogen (P21). […] RTX was given at Anagen VI (P31˜P36).
All images were acquired using a Zeiss LSM 880 confocal microscope or Keyence microscope using ×20 or ×40 magnification lenses. Images are presented as Maximum Intensity Projection images. For colocalization analysis, images are presented as a single Z stack.

## C=C(C)[C@]12C[C@@H](C)[C@@]34O[C@](Cc5ccccc5)(O[C@@H]1[C@@H]3C=C(COC(=O)Cc1ccc(O)c(OC)c1)C[C@]1(O)C(=O)C(C)=C[C@@H]41)O2 [RTX, resiniferatoxin]
[1]; before MeSC depletion from the niche, 1 day after injection
  active caspase-3 or TUNEL signals in MeSCs: failed to detect active caspase-3 or TUNEL signals
[1]; following injection
  gamma-H2AX foci (DNA damage) in MeSCs: failure to detect gamma-H2AX foci
[2]
  Phospho-CREB in MeSCs: marked induction of Phospho-CREB
[3]
  ectopic pigmentation: ectopic pigmentation could be detected along the hair follicle, epidermis, and dermis
[4]
  transcriptome changes in MeSCs: upregulate proliferation and differentiation programs
[5]
  MeSCs positive for Phospho-Histone H3: about 50%
